Measurements reported in US10757943B2, “Thidiazuron mixtures and uses thereof” (Valent BioSciences LLC, priority 2017, dated 2020).

How the values were obtained:
Type in all cases: in vivo
[1] = tested on: Red Flame seedless grape vines; test: Bud break and shoot length of field-grown Red Flame seedless grape vines (Example 2); conditions: for Broken Buds per plant (Average Buds Broken per Spur): 31 days after treatment; for % Broken Buds / Total Shoot Length: 48 days after treatment
Description: To assess the ability of mixtures of the invention to promote and synchronize bud break these mixtures were applied to field-grown Red Flame seedless grape vines and examined for bud break (initiation of growth) and subsequent shoot development. Thidiazuron, hydrogen cyanamide, 17-0-0 fertilizer, and mixtures thereof were each applied individually or sequentially (co-applied) to the separate spurs of Red Flame seedless grape vines. Plants were evaluated for bud break at 31 days after treatment, for percent bud break and total new shoot length at 48 days after treatment. Results of these evaluations can be seen below in Tables 4 and 5.

[2] = tested on: Concord grape vines; test: Bud break and harvest weight of endo-dormant two-year-old Concord grape vines in the greenhouse (Example 4); conditions: thidiazuron ppm and 17-0-0 % as in label, 15-0-0 65,880 ppm; for Fresh Shoot Weight (g)/Plant: new growth at close of study
From the text: Two-year-old Concord grape vines were purchased commercially. These vines had just lost their leaves and were shipped shortly after they were dug at the nursery. Thus, the vines had not fulfilled their chilling requirement and were considered endo-dormant. The vines were potted individually into one-gallon pots containing ProMix® BX immediately upon receipt and subsequently pruned back to the five proximal buds on the one-year old wood. Within two hours of pruning, treatment solutions were applied using a foam paint brush to the remaining one-year old wood, including the cut end from pruning. Two treatments, water and hydrogen cyanimide, which acted as negative and positive controls, respectively, were included in all studies.
Treatment solutions were made fresh in water and contained 1% (v/v) non-ionic surfactant. In all cases, two treatment solutions were applied to the plants. Where a single component was used for a treatment, the first application solution was water containing surfactant; in the cases where combination treatments were made to the same plant, the first treatment solution was allowed to dry prior to applying the second.
The treated plants were kept in a conventional greenhouse under supplemental lighting. Greenhouse conditions were 65:60° F. Day:Night temperature with a 16:8 hour photoperiod. Relief from dormancy was assessed every two days during the course of the study. Dormancy was considered relieved upon the emergence of a green bud. Both the number of ‘broken buds’ per plant and the date of relief of plants from dormancy were assessed. At the close of the study, new growth was removed from each of the treated plants and weighed.

[3] = tested on: Concord grape vines; test: Bud break and shoot growth of potted dormant Concord grape vines in the greenhouse (Example 1); conditions: for % bud break (vines with at least one bud break): hydrogen cyanamide 10,000 ppm, 17-0-0 197,100 ppm, 15-0-0 239,060 ppm, ACC 1,000 ppm; for % bud break (vines with at least one bud break) / 50% Bud Break to Harvest / Initial to 50% Bud Break / 25% Bud Break (DAT) / 50% Bud Break (DAT): thidiazuron 300 ppm unless label states other; for Dry Weight (g)/25% Bud Break to Harvest (d): combined shoot dry weight at 49 DAT normalised by days from 25% bud break to harvest; for Dry Weight (g)/50% Bud Break to Harvest (d): combined shoot dry weight at 49 DAT normalised by days from 50% bud break to harvest; for Fresh Weight (g)/50% Bud Break to Harvest (d): combined shoot fresh weight at 49 DAT normalised by days from 50% bud break to harvest; for 50% Bud Break to Harvest: harvest at day 49; for Initial to 50% Bud Break: synchrony of bud break; for 25% Bud Break (DAT): time to 25% bud break; for 50% Bud Break (DAT): time to 50% bud break
From the text: An aqueous 50% hydrogen cyanamide solution (Sigma-Aldrich, St. Louis, Mo. USA) was used as the source of hydrogen cyanamide. The commercial product, Dormex® contains 50% hydrogen cyanamide (w/v) in water.
Erger® was used as the source of 15-0-0 fertilizer. (Erger is a registered trademark of Valagro S.P.A., Italy and is available from Helena Chemical Company, Collierville, Tenn., USA). Erger® contains 15% total nitrogen as 3.1% ammoniacal nitrogen, 5.8% nitrate nitrogen and 6.1% urea nitrogen and 3.3% calcium derived from ammonium nitrate, calcium nitrate and urea. As used herein, the term “15-0-0 fertilizer” refers to the Erger® formulation above and all formulations described in International PCT application publication WO/2001/037653A2 by Valagro S.P.A., Italy, which is incorporated, herein, in its entirety.
CAN-17 was used as the source of 17-0-0 fertilizer. CAN-17 contains 17% total nitrogen as 4.6% ammonium nitrogen and […] nitrate nitrogen and 1.3% urea nitrogen and 8.8% calcium derived from ammonium nitrate and calcium nitrate. CAN-17 is available from J.R. Simplot Company (Boise, Id., USA).
To assess the ability of mixtures of the invention to promote and synchronize bud break these mixtures were applied to Concord grape vines and examined for bud break (initiation of growth) and subsequent shoot development. Specifically, 1 year old dormant bare rooted Concord grape vines were planted in pots containing Pro-Mix® BX potting soil (Pro-Mix is a registered trademark of and available from Premier Horticulture Ltd.) and pruned to 5 nodes on a single shoot. Aqueous solutions of thidiazuron, hydrogen cyanamide, 15-0-0 fertilizer, 17-0-0 fertilizer and 1-aminocyclopropane-1-carboxylic acid (“ACC”), and mixtures thereof were each applied individually or sequentially or co-applied to the first-year wood of separate Concord grape vines. Plants were grown in the greenhouse for 49 days and evaluated for percent of vines showing bud break, or relief from dormancy, periodically between 7 days and the conclusion of the experiment. […] At 49 days after treatment (DAT), the plants were sacrificed and measured for total number of flower clusters, total new shoot length, longest new shoot, combined new shoot fresh weight and combined new shoot dry weight. New shoot growth is the growth arising from the dormant buds not including the woody growth that was planted and gave rise to the new growth.
Synergy is calculated by the Abbott method: %Cexp=A+B−(AB/100), where % Cexp is the expected efficacy and in which A and B are the speed of bud break or shoot length or shoot weight given by the single active ingredients. If the ratio between the experimentally observed efficacy of the mixture Cobs and the expected efficacy of the mixture is greater than 1, synergistic interactions are present in the mixture” (Gisi, Synergistic Interaction of Fungicides in Mixtures, The American Phytopathological Society, 86:11, 1273-1279,1996).

[4] = hydrogen cyanamide 10,000 ppm, thidiazuron 300 ppm, 17-0-0 197,100 ppm
[5] = 49 days post treatment, thidiazuron ppm as in label, other concentrations as in Table 1, listed as Thidiazuron (300)
[6] = 49 days post treatment, thidiazuron ppm as in label, other concentrations as in Table 1, listed as Thidiazuron (1000)
[7] = other concentrations as in Table 1, listed as Thidiazuron (1000)
[8] = other concentrations as in Table 1
[9] = other concentrations as in Table 1, listed as 1,000 ppm thidiazuron

## O=C(Nc1ccccc1)Nc1cnns1 [Thidiazuron, 1-Phenyl-3-(1,2,3-thiadiazol-5-yl)urea]
[1]; [4]
  Broken Buds per plant (Average Buds Broken per Spur): 0.1
  % Broken Buds: 80%
  Total Shoot Length: 15.38
[1]; thidiazuron 1,000 ppm
  Broken Buds per plant (Average Buds Broken per Spur): 0.4
  % Broken Buds: 78.1%
  Total Shoot Length: 24.3
[2]; listed as Thidiazuron (100)
  Fresh Shoot Weight (g)/Plant: 15.53 g
  50% Bud Break (DAT): 33 DAT
  100% Bud Break (DAT): 44 DAT
  Initial to 50% Bud Break: 7
  Number of Buds Broken/Plant: 2
[2]; listed as Thidiazuron (300)
  Fresh Shoot Weight (g)/Plant: 13.15 g
  50% Bud Break (DAT): 28 DAT
  100% Bud Break (DAT): 48 DAT
  Initial to 50% Bud Break: 14
  Number of Buds Broken/Plant: 2.125
[2]; listed as Thidiazuron (1000)
  Fresh Shoot Weight (g)/Plant: 22.45 g
  50% Bud Break (DAT): 21 DAT
  100% Bud Break (DAT): 37 DAT
  Initial to 50% Bud Break: 7
  Number of Buds Broken/Plant: 4.5
[3]; 7 DAT
  % bud break (vines with at least one bud break): 0%
[3]; 10 DAT
  % bud break (vines with at least one bud break): 0.0%
[3]; 10 DAT, listed as Thidiazuron (1,000)
  % bud break (vines with at least one bud break): 44.4%
[3]; 13 DAT
  % bud break (vines with at least one bud break): 0.0%
[3]; 13 DAT, listed as Thidiazuron (1,000)
  % bud break (vines with at least one bud break): 77.8%
[3]; 15 DAT
  % bud break (vines with at least one bud break): 0.0%
[3]; 15 DAT, listed as Thidiazuron (1,000)
  % bud break (vines with at least one bud break): 88.9%
[3]; 17 DAT
  % bud break (vines with at least one bud break): 11.1%
[3]; 17 DAT, listed as Thidiazuron (1,000)
  % bud break (vines with at least one bud break): 88.9%
[3]; 20 DAT
  % bud break (vines with at least one bud break): 11.1%
[3]; 20 DAT, listed as Thidiazuron (1,000)
  % bud break (vines with at least one bud break): 100.0%
[3]; 22 DAT
  % bud break (vines with at least one bud break): 22.2%
[3]; 22 DAT, listed as Thidiazuron (1,000)
  % bud break (vines with at least one bud break): 100.0%
[3]; 24 DAT
  % bud break (vines with at least one bud break): 33.3%
[3]; 24 DAT, listed as Thidiazuron (1,000)
  % bud break (vines with at least one bud break): 100.0%
[3]; 27 DAT
  % bud break (vines with at least one bud break): 33.3%
[3]; 27 DAT, listed as Thidiazuron (1,000 ppm)
  % bud break (vines with at least one bud break): 100.0%
[3]; 29 DAT
  % bud break (vines with at least one bud break): 33.3%
[3]; 29 DAT, listed as Thidiazuron (1,000 ppm)
  % bud break (vines with at least one bud break): 100.0%
[3]; 31 DAT
  % bud break (vines with at least one bud break): 33.3%
[3]; 31 DAT, listed as Thidiazuron (1,000 ppm)
  % bud break (vines with at least one bud break): 100.0%
[3]; 34 DAT
  % bud break (vines with at least one bud break): 33.3%
[3]; 34 DAT, listed as Thidiazuron (1,000 ppm)
  % bud break (vines with at least one bud break): 100.0%
[3]; 36 DAT
  % bud break (vines with at least one bud break): 44.4%
[3]; 36 DAT, listed as Thidiazuron (1,000 ppm)
  % bud break (vines with at least one bud break): 100.0%
[3]; 38 DAT
  % bud break (vines with at least one bud break): 55.6%
[3]; 38 DAT, listed as Thidiazuron (1,000 ppm)
  % bud break (vines with at least one bud break): 100.0%
[3]; 41 DAT
  % bud break (vines with at least one bud break): 55.6%
[3]; 41 DAT, listed as Thidiazuron (1,000 ppm)
  % bud break (vines with at least one bud break): 100.0%
[3]; 43 DAT
  % bud break (vines with at least one bud break): 66.7%
[3]; 43 DAT, listed as Thidiazuron (1,000 ppm)
  % bud break (vines with at least one bud break): 100.0%
[3]; 49 DAT
  % bud break (vines with at least one bud break): 77.8%
[3]; 49 DAT, listed as Thidiazuron (1,000 ppm)
  % bud break (vines with at least one bud break): 100.0%
[3]; 49 days post treatment, thidiazuron ppm as in label, other concentrations as in Table 1
  Total # of Flower Clusters: 0.1
[3]; [5]
  Combined Shoot Dry Weight: 1.5 g
  Combined Shoot Fresh Weight: 8.2 g
  Longest Shoot Length: 20.1 cm
  Total Shoot Length: 28.3 cm
[3]; [6]
  Combined Shoot Dry Weight: 6.9 g
  Combined Shoot Fresh Weight: 31.8 g
  Longest Shoot Length: 68.3 cm
  Total Shoot Length: 88.8 cm
[3]; listed as Thidiazuron (300)
  Dry Weight (g)/25% Bud Break to Harvest (d): 0.06 g/day
  Dry Weight (g)/50% Bud Break to Harvest (d): 0.13 g/day
  Fresh Weight (g)/50% Bud Break to Harvest (d): 0.68 g/day
[3]; listed as Thidiazuron (1000)
  Dry Weight (g)/25% Bud Break to Harvest (d): 0.17 g/day
  Dry Weight (g)/50% Bud Break to Harvest (d): 0.18 g/day
  Fresh Weight (g)/50% Bud Break to Harvest (d): 0.84 g/day
[3]; other concentrations as in Table 1, listed as Thidiazuron (300)
  50% Bud Break to Harvest: 12 days
[3]; [7]
  50% Bud Break to Harvest: 38 days
  Initial to 50% Bud Break: 3 days
  25% Bud Break (DAT): 9 DAT
  50% Bud Break (DAT): 11 DAT
[3]; other concentrations as in Table 1, listed as thidiazuron
  50% Bud Break to Harvest: 12 days
[3]; [8]
  Initial to 50% Bud Break: 21 days
  25% Bud Break (DAT): 23 DAT
  50% Bud Break (DAT): 37 DAT
[3]; [9]
  Initial to 50% Bud Break: 3 days
  50% Bud Break (DAT): 11 DAT
